Values joined by “and” are separate entries in the source; they are usually repeats but may differ in a detail not shown here. Equal entries are not always repeated.
What was measured:
[1] = test system: thromboxane analog U46619 induced PAH in minipigs; test: Haemodynamics (PAP, BP) in the anesthetized thromboxane challenged PAH minipig after inhaled (nebulized) application (C-2.1); format: in vivo, Göttingen minipig; conditions: 10 μg/kg nominal dose, inhaled, n = 3
Protocol: Experiments were carried out in anesthetized Göttingen minipigs, anesthetized rats and conscious, telemetrically instrumented dogs. Acute pulmonary hypertension was induced for example by infusion of a thromboxane A2 analogon, by acute hypoxia treatment or hypoxia treatment over a number of weeks and/or by administration of monocrotaline. Test substances were applied via nebulization using the Nebutec® or Aeroneb® Pro nebulizer system, and/or by means of powder and/or solution applicators for experimental intratracheal administration (Liquid MicroSprayer®, Dry Powder Insufflator™, MicroSprayer®, Penn-Century Inc., Wyndmoor, PA, USA) or after solid nebulization inserted into the inspiration arm of the ventilation. Compounds were employed as solids or solutions depending on the molecular structure and the technical possibility depending on the experiment. The haemodynamic signals were recorded and evaluated by means of pressure transducers/amplifiers (Combitransducer B. Braun, Melsungen, Germany or CardioMEMS Inc., Atlanta, GA, USA) and Ponemah® or CardioMems® as data aquisition software. After long-term experiments (for example monocrotaline rat), it is also possible to carry out a histological evaluation.
Healthy Gottingen Minipigs® Ellegaard (Ellegaard, Denmark) of both sexes and having a weight of 2-6 kg were used. The animals were sedated by i.m. administration of about 25 mg/kg ketamine and about 10 mg/kg azaperone. Anaesthesia was initiated by i.v. administration of about 2 mg/kg ketamine and about 0.3 mg/kg midazolam. Maintenance of anaesthesia was by i.v. administration of about 7.5-30 mg/kg/h ketamine and about 1-4 mg/kg/h midazolam (rate of infusion 1-4 ml/kg/h) and about 150 μg/kg/h pancuronium bromide (for example Pancuronium-Actavis). After intubation, the animals were ventilated by the ventilator at a constant respiratory volume (10-12 ml/kg, 35 breaths/min; Avea®, Viasys Healthcare, USA, or Engstrom Carestation, GE Healthcare, Freiburg, Germany) such that an end-tidal CO2 concentration of about 5% was achieved. Ventilation was performed with room air, enriched with about 40% oxygen (normoxia). For the measurement of the haemodynamic parameters such as pulmonary arterial pressure (PAP), blood pressure (BP) and heart rate (HR), catheters were inserted into the carotid artery to measure the blood pressure, and a Swan-Ganz® catheter was introduced in a flow-directed manner via the jugular vein into the pulmonary artery. The haemodynamic signals were recorded and evaluated by means of pressure transducers (Combitransducer, B. Braun, Melsungen, Germany)/amplifiers and Ponemah® as data aquisition software.
After the instruments have been placed into the animals, continuous infusion of a thromboxane A2 analog was initiated to increase the pulmonary arterial pressure. […] D0400, or Cayman Chemical Company, cat. no. 16440), dissolved in physiological saline, were infused to achieve an increase of the mean pulmonary arterial pressure to values of over 25 mmHg. 30 minutes after the start of the infusion, a plateau was reached, and the experiment was started.
The test substances were administered as i.v. infusion or by inhalation. For the preparation of the solution for inhalation, the following procedure was adopted: For an animal having a weight of 4 kg, to prepare the stock solution (300 μg/kg), 1.2 mg of the test compound were weighed out and dissolved in a total volume of 3 ml (1% DMSO, 99% 0.2% strength citric acid solution, 1 N aqueous sodium hydroxide solution to adjust the pH to 8). The solution was then diluted to the concentration employed using 0.2% strength citric acid which had been adjusted to pH 8 beforehand with aqueous sodium hydroxide solution. In each test, 3 ml of the solution of test compound per 4 kg animal were nebulized in the inhalation arm of the respiratory circuit using the Aeroneb® Pro nebulizer system. The mean nebulization time was about 7 min from the start of the nebulization.

[2] = test system: anesthetized PAH minipigs; test: PAH minipig model: intratracheal application of dry powder formulations and different hydrates (PennCentury insufflator); format: in vivo, Göttingen minipig; conditions: for BP (mean) / PAP(mean) / BP % changes vs. prevalues / PAP % changes vs. prevalues: 375 μg/kg i.t.; for BP (mean) / PAP(mean): absolute values; for BP % changes vs. prevalues / PAP % changes vs. prevalues: each animal
Description: After characterization of the effects of comparative example 11 after nebulization of compound solutions, in a further step the effects of crystalline forms of comparative example 11, e.g. sesquihydrate, e.g. example 6e on PAP and BP after inhaled application of different dry powder lactose formulations (table C2.1.8) were studied in anesthetized PAH minipigs.
As reference pure Lactose vehicle was applied in the beginning of each experiment.

CC#CCC(C)[C@H](O)/C=C/[C@@H]1[C@H]2C/C(=C/CCCC(=O)O)C[C@H]2C[C@H]1O (stereo partly shown) [Ventavis ®]
PAP % changes vs prevalue, mean ([1]; time 0 min): 0%
PAP % changes vs prevalue, mean ([1]; time 10 min): −30.3%
PAP % changes vs prevalue, mean ([1]; time 20 min): −20.7%
PAP % changes vs prevalue, mean ([1]; time 30 min): −6.9%
PAP % changes vs prevalue, mean ([1]; time 40 min): 1.7%
PAP % changes vs prevalue, mean ([1]; time 50 min): 4.9%

O.O=C(O)c1ccc(CCN(CCc2ccccc2OCc2ccc(-c3ccc(C(F)(F)F)cc3)cc2Cl)[C@H]2CCCc3nc(C(=O)O)ccc32)cc1.O=C(O)c1ccc(CCN(CCc2ccccc2OCc2ccc(-c3ccc(C(F)(F)F)cc3)cc2Cl)[C@H]2CCCc3nc(C(=O)O)ccc32)cc1 [example 6a, (5S)-{[2-(4-Carboxyphenyl)ethyl][2-(2-{[3-chloro-4′-(trifluoromethyl)biphenyl-4-yl]methoxy}phenyl)-ethyl]amino}-5,6,7,8-tetrahydroquinoline-2-carboxylic acid semihydrate]
efficacy with regard to PAP reduction as well as systemic BP reduction ([2]; 1.5 mg/4 kg (=375 μg/kg) intratracheally, micronized): comparable efficacy
BP (mean) ([2]; time 0): 101 mmHg and 85 mmHg
PAP(mean) ([2]; time 0): 39.6 mmHg and 40.8 mmHg and 38.5 mmHg
BP (mean) ([2]; time 10): 103 mmHg and 83 mmHg and 79 mmHg
PAP(mean) ([2]; time 10): 40.2 mmHg and 41.1 mmHg
BP (mean) ([2]; time 20): 101 mmHg and 83 mmHg and 84 mmHg
PAP(mean) ([2]; time 20): 40.4 mmHg and 41.3 mmHg
BP (mean) ([2]; time 30): 100 mmHg and 81 mmHg and 88 mmHg
PAP(mean) ([2]; time 30): 40.2 mmHg and 41.3 mmHg
BP (mean) ([2]; time 40): 98 mmHg and 81 mmHg and 90 mmHg
PAP(mean) ([2]; time 40): 40.4 mmHg and 41.8 mmHg and 41.0 mmHg
BP (mean) ([2]; time 50): 99 mmHg and 78 mmHg and 89 mmHg
PAP(mean) ([2]; time 50): 40.7 mmHg and 41.7 mmHg and 40.9 mmHg
BP % changes vs. prevalues ([2]; time 50): 99.6% and 98.4% and 100.6%
PAP % changes vs. prevalues ([2]; time 50): 99.3% and 98.7% and 98.9%
BP (mean) ([2]; time 60): 100 mmHg and 79 mmHg and 86 mmHg
PAP(mean) ([2]; time 60): 41.2 mmHg and 42.0 mmHg and 40.9 mmHg
BP % changes vs. prevalues ([2]; time 60): 100.6% and 99.7% and 97.2%
PAP % changes vs. prevalues ([2]; time 60): 100.7% and 99.4% and 99.2%
BP (mean) ([2]; time 70): 102 mmHg and 78 mmHg and 87 mmHg
PAP(mean) ([2]; time 70): 38.8 mmHg and 40.6 mmHg and 40.1 mmHg
BP % changes vs. prevalues ([2]; time 70): 102.6% and 98.4% (2×)
PAP % changes vs. prevalues ([2]; time 70): 94.7% and 96.1% and 97.0%
BP (mean) ([2]; time 80): 102 mmHg and 79 mmHg and 90 mmHg
PAP(mean) ([2]; time 80): 34.1 mmHg and 39.9 mmHg and 37.7 mmHg
BP % changes vs. prevalues ([2]; time 80): 102.6% and 99.7% and 101.8%
PAP % changes vs. prevalues ([2]; time 80): 83.4% and 94.5% and 91.2%
BP (mean) ([2]; time 90): 101 mmHg and 81 mmHg and 92 mmHg
PAP(mean) ([2]; time 90): 30.1 mmHg and 37.7 mmHg and 36.6 mmHg
BP % changes vs. prevalues ([2]; time 90): 101.6% and 102.2% and 104.0%
PAP % changes vs. prevalues ([2]; time 90): 73.4% and 89.2% and 88.7%
BP (mean) ([2]; time 100): 100 mmHg and 80 mmHg and 95 mmHg
PAP(mean) ([2]; time 100): 28.3 mmHg and 35.9 mmHg and 35.0 mmHg
BP % changes vs. prevalues ([2]; time 100): 100.6% and 101.0% and 107.4%
PAP % changes vs. prevalues ([2]; time 100): 69.0% and 85.0% and 84.7%
BP (mean) ([2]; time 110): 99 mmHg and 79 mmHg
PAP(mean) ([2]; time 110): 27.2 mmHg and 34.8 mmHg and 34.0 mmHg
BP % changes vs. prevalues ([2]; time 110): 99.6% and 99.7% and 111.9%
PAP % changes vs. prevalues ([2]; time 110): 66.5% and 82.4% and 82.1%
BP (mean) ([2]; time 120): 99 mmHg and 79 mmHg and 96 mmHg
PAP(mean) ([2]; time 120): 26.4 mmHg and 34.1 mmHg and 32.9 mmHg
BP % changes vs. prevalues ([2]; time 120): 99.6% and 99.7% and 108.6%
PAP % changes vs. prevalues ([2]; time 120): 64.4% and 80.8% and 79.7%
BP (mean) ([2]; time 130): 98 mmHg and 81 mmHg and 97 mmHg
PAP(mean) ([2]; time 130): 25.7 mmHg and 33.7 mmHg and 31.7 mmHg
BP % changes vs. prevalues ([2]; time 130): 98.6% and 102.2% and 109.7%
PAP % changes vs. prevalues ([2]; time 130): 62.8% and 79.9% and 76.7%
BP (mean) ([2]; time 140): 99 mmHg and 82 mmHg and 98 mmHg
PAP(mean) ([2]; time 140): 25.3 mmHg and 33.2 mmHg and 31.3 mmHg
BP % changes vs. prevalues ([2]; time 140): 99.6% and 103.5% and 110.8%
PAP % changes vs. prevalues ([2]; time 140): 61.8% and 78.7% and 75.7%
BP (mean) ([2]; time 150): 97 mmHg and 82 mmHg
PAP(mean) ([2]; time 150): 25.0 mmHg and 32.9 mmHg and 30.7 mmHg
BP % changes vs. prevalues ([2]; time 150): 97.6% and 103.5% and 109.7%
PAP % changes vs. prevalues ([2]; time 150): 60.9% and 78.0% and 74.3%
PAP(mean) ([2]; time 160): 24.5 mmHg and 32.5 mmHg and 30.2 mmHg
BP % changes vs. prevalues ([2]; time 160): 96.6% and 102.2% and 109.7%
PAP % changes vs. prevalues ([2]; time 160): 59.9% and 77.1% and 73.1%
BP % changes vs. prevalues ([2]; time 170): 95.6% and 99.7% and 107.4%
PAP % changes vs. prevalues ([2]; time 170): 58.6% and 76.7% and 72.3%
BP % changes vs. prevalues ([2]; time 180): 94.6% and 99.7% and 106.3%
PAP % changes vs. prevalues ([2]; time 180): 58.0% and 75.4% and 71.8%
BP % changes vs. prevalues ([2]; time 190): 94.6% and 108.5% and 105.2%
PAP % changes vs. prevalues ([2]; time 190): 59.5% and 78.4% and 70.7%
BP % changes vs. prevalues ([2]; time 200): 92.6% and 107.3% and 104.0%
PAP % changes vs. prevalues ([2]; time 200): 60.5% and 76.8% and 71.1%
BP % changes vs. prevalues ([2]; time 210): 90.6% and 102.2% and 102.9%
PAP % changes vs. prevalues ([2]; time 210): 60.6%
BP (mean) ([2]; time −10): 99 mmHg and 85 mmHg and 86 mmHg
PAP(mean) ([2]; time −10): 38.7 mmHg and 40.6 mmHg
